According to patent publication US7871978B2, “Bone tropic peptides” (University of Virginia Patent Foundation, priority 2004, dated 2011):

What was measured:
[1] = tested on: bovine aortic endothelial cells; assay: Effect of peptides on adherent bovine aortic endothelial cells on fibronectin or collagen; assay type: cell-based; conditions: for Effect on adherent BAEC (Experiment 1): 0.1M biotinylated peptide, 1 hour, cells adhered four hours on fibronectin or collagen
Experimental: Peptides from the phage display project were added to bovine aortic endothelial cells in culture. The endothelial cells had adhered to a surface coated with collagen or with fibronectin.
Experiment 1: Bovine aortic endothelial cells were plated on glass slides that were coated either fibronectin or collagen. The cell density was 5,000 cells/well. After the cells adhered for four hours, 0.1M of biotinylated peptide was added to each well. The following peptides were used: L1, L2, L5, L6, L7, L12, L13, L14, L19, R1, R3, and R8.
To perform this experiment, the media was removed and the cells were rinsed with 1×PBS plus 1% BSA three times. Peptides were diluted in 1×PBS plus 1% BSA, added to cells and incubated for 1 hour. The cells were rinsed three times with 1% BSA in PBS, and fixed with 2% parafomaldehyde. Aldehyde groups were blocked with 0.2 M HCl-glycine in PBS, the cells were rinsed three times with 1% BSA in PBS and ExtrAvidin-FITC (1:200 dilution) was added and incubated overnight at 4° C. The cells were rinsed three times with 1% BSA in PBS. The chambers and the gasket were removed from each slide, Vectashield was added, covered and viewed on a Nikon microscope. Images were acquired using a Coolsnap digital camera and Metavue software. […]
Experiment 3: The cells were adherent for about 6 hours and peptides at various concentrations were added to the cells. The concentrations of each of the peptides used in this experiment were: 0.1M, 0.01M, 0.001M and 0.0001M biotinylated peptide. The following peptides were tested: L1, L5, L6, L7, L13, L14, R1, R3, R8, DIP1 and PBS control (SEQ ID NOs:1, 3, 4, 5, 8, 9, 11, 13, 14, and 29).

bone and bone marrow = assay: In vivo biopanning with 12-mer peptide phage display library; design: species or system BALB/c mice; conditions: for PERCENT FREQUENCY: phage eluted from bone and bone marrow; for PHAGE SEQUENCE FREQUENCY (number of times the sequence was found in a group of plaques): phage eluted from bone and bone marrow after repeated rounds
Description: The Ph.D.-12 Phage Display Peptide Library Kit (New England Biolabs, Beverly, Mass.) used in this study is based on a combinatorial library of random peptide 12-mers fused to a minor coat protein (pIII). […] The peptide is followed by a short spacer of four amino acid residues, the first three residues of which are glycine and the fourth of which is serine, and then the wild-type III sequence. The library consists of approximately 2.7×10^9 electroporated sequences, amplified once to yield approximately 55 copies of each sequence.
For in vivo biopanning, BALB/c mice 8 weeks of age were injected 3.4×10^10 pfu of phage into the heart. The animals were euthanized after 5 minutes, and the tissues (bone, bone marrow, kidney, liver, and spleen) were collected for analysis. The bound phage was eluted according the manufacturer's instructions. The eluted phage was titered, amplified, purified, and injected again at the same concentration.
The frequency of each peptide in bone and bone marrow was compared with its location in other tissues such as liver, kidney, lung, spleen, and brain. Thirteen unique peptide sequences eluted from bone and marrow were identified were identified by sequencing phage DNA. The peptides were synthesized using the polystyrene solid support on a Protein Technologies Symphony Multiple Channel Synthesizer.

[2] = tested on: Unicortical femoral defects; assay: Peptide-mediated osteogenesis in cortical bone defects (Example 8); assay type: in vivo, Fisher 344 rats; conditions: 100 mM peptide in gelfoam, two weeks postoperatively; for Effectiveness at stimulating osteogenesis and cortical bone repair: versus gelfoam+PBS
Experimental: In an in vivo study, all 13 peptides at a concentration of 100 mM were tested for their ability to potentiate osteogenesis. A gelfoam cylinder 1.5 mm in diameter 2 mm in length was used as carrier for the peptides. Unicortical femoral defects 1.5 mm in diameter were created bilaterally in Fisher 344 rats; the left femoral defect was filled with gelfoam+PBS (Control), and the right femur with gelfoam+peptide. The samples were harvested and examined two weeks postoperatively. To examine the effect of peptide concentration on cortical bone regeneration, peptide L7 (SEQ ID NO:5) was used at 1, 5, and 20 mM. […] The time course of cortical bone repair with 20 mM L7 was examined at 5, 10, 15, and 20 days.

LNCaP cells = assay: Prostate cancer cell adhesion to BMEC: LNCaP; assay type: cell-based; conditions: FIG. 8; preliminary results
Experimental: (§1) FIG. 8 is a graphic representation of the effects of various peptides on altering cellular adhesion to BMEC cells in vitro. LNCaP cells were compared directly to C4-2 cells for the ability of specific phage-derived peptides to alter cellular adhesion to BMEC cells in vitro. Adhesion was measured at […]. C=control (no peptide). The ordinate represents percent of acid precipitable counts bound and the abscissa indicated the cells treated and the peptides used.
(§2) The phage-derived bone-targeting peptides isolated by biopanning were tested for their ability to alter the adhesion of prostate cancer cells to a human bone marrow endothelial cell line (see FIG. 8). In this assay, LNCaP cells were compared directly to the more metastatic, bone colonizing derivative, C4-2.

C4-2 cells = assay: Prostate cancer cell adhesion to BMEC: C4-2; assay type: cell-based; conditions: FIG. 8; preliminary results
Experimental: as §1, §2

prostate cancer cells = assay: Chimeric tumors of killer-gene mesenchymal cells and prostate cancer cells treated with prodrug; assay type: in vivo, immune deficient rats
Experimental: Further experiments were carried out exploiting the phenomenon of mesenchymal cell homing to skeletal tissues. Cells transduced with thymidine kinase or cytidine deaminase, killer genes that can be expressed under the influence of a prodrug, lead to a cell kill effect on neighboring prostate cancer cells in a co-culture system in vitro. In vivo, the mesenchymal cells and prostate cancer cells were co-injected into subcutaneous sites in immune deficient rats. […] Therefore, a cell-based gene delivery system may be useful to pursue as potential therapy for metastatic cancer, particularly prostate cancer cells that have spread to bone.

[3] = tested on: bovine aortic endothelial cells (BAEC); assay: Peptide binding to BAEC in culture (Avidin-FITC); design: key: ✓: Check marks indicate positive binding observed with FITC; −: a dash indicates a negative result
Experimental: (§3) For localization of peptide binding to cells and tissue sections, biotinylated peptides were synthesized. Fluorescein-isothiocyanate (FITC) labeled Avidin was used to localize the peptides on cells in culture and in tissue sections in vitro by epiluminescence microscopy. In addition, the biotinylated peptides were detected at concentrations as low as 1 μM in slot blots.
(§4) Bone marrow cells isolated from mouse femur were lifted with ethylenediaminetetraacetic acid (EDTA) and trypsin, resuspended, and allowed to attach on fibronectin-coated chamber slides for Avidin-FITC staining. […] The D1 cell is a multipotential mesenchymal stem-like line that was isolated from bone marrow and shown to have the characteristics of osteoprogenitor cells. This cell line has been well established and used successfully in several in vitro and in vivo studies in our laboratory. Peptide binding to human bone marrow endothelial cells (HBME) and bovine aortic endothelial cells (BAEC) in culture was also tested using the same procedure.

[4] = tested on: Bone marrow cells isolated from mouse femur; assay: Peptide binding to bone marrow cells in culture (Avidin-FITC); design: key to Localization of peptide binding: Marrow (cells in culture): ✓: Check marks indicate positive binding observed with FITC; −: a dash indicates a negative result; conditions: FITC
Experimental: as §3, §4

[5] = tested on: Membrane and cytosol fractions from human bone marrow endothelial cells; assay: Affinity chromatography of HBME fractions on immobilized peptide; assay type: binding; design: key to Identification of binding partners by affinity chromatography: HBME: ✓: Check marks indicate positive binding observed with FITC; −: a dash indicates a negative result; conditions: cell lysates
Experimental: (§5) Membrane and cytosol fractions from human bone marrow endothelial cells and bovine aortic endothelial cells were prepared and used to identify the components from within these fractions that bind to the peptides using affinity chromatography). […] Cell surface nucleolin is present at higher concentrations in actively dividing cells and is down regulated in cells when they become quiescent. Nucleolin is the apparent cell surface receptor of E-coli intimin-gamma. Cell bound intimin has been proposed to trigger a host cell response similar to the extension of filipodia when cells bind to laminin. […] Table 3 provides a summary of peptide-binding partners (putative receptors) identified by affinity chromatography of cell lysates.
Peptide Affinity Column Chromatography: Peptides identified from the phage display experiments in mouse bone and bone marrow were synthesized with an additional three-residue glycine linker and an N-terminal lysine residue. The lysine residue was used to specifically link the peptides to a support. Cell membranes from BMECs were solubilized with triton X-100. The solubilized proteins were passed through the peptide affinity column (total volume, 500 μL) followed by extensive washes with buffer. Retained proteins were eluted either with 100 mM solution of the same peptide as that immobilized on the column or with a wash of 0.1 N HCl-Glycine, pH 2.2. The eluates were analyzed by SDS PAGE and proteins observed in the gels were identified by LC/MS/MS.

[6] = tested on: Membrane and cytosol fractions from bovine aortic endothelial cells; assay: Affinity chromatography of BAEC fractions on immobilized peptide; assay type: binding
Experimental: as §5

Molecule	Effect on adherent BAEC (Experiment 1) [1]	PERCENT FREQUENCY (bone and bone marrow)	PHAGE SEQUENCE FREQUENCY (number of times the sequence was found in a group of plaques) (bone and bone marrow)	Histological appearance of repair tissue in the defect [2]	Effectiveness at stimulating osteogenesis and cortical bone repair [2]	Effect on adhesion of LNCaP cells to BMEC (LNCaP cells)	Effect on adhesion of C4-2 cells to BMEC (C4-2 cells)	Size of chimeric tumors (prostate cancer cells; mesenchymal cells and prostate cancer cells co-injected subcutaneously, prodrug treatment)	Serum PSA levels (prostate cancer cells; treated rats)	Effect on adherent BAEC (Experiment 3) ([1]; 0.1M peptide, cells adherent about 6 hours)	Localization of peptide binding: BAEC [3]	Localization of peptide binding: Marrow (cells in culture) [4]	Identification of binding partners by affinity chromatography: HBME [5]	Binding partner from BAEC lysates ([6]; biotinylated peptide immobilized on avidin-agarose)	Identification of binding partners by affinity chromatography: BAEC ([6]; cell lysates)
ASP-SER-SER-ASN-PRO-ILE-PHE-TRP-ARG-PRO-SER-SER-GLY-GLY-GLY-SER (DSSNPIFWRPSSGGGS; listed as Homo sapiens) [Peptide L19]	no effect, with results similar to PBS	16.7%	5/30	while some ossification and cortical bone regeneration has occurred, considerable amounts of gelfoam remains in the defect	virtually no stimulatory effect on osteogenesis	strongly inhibited the less aggressive LNCaP cell	leaving the adhesion of the C4-2 cell line unaffected								
Nc1nc2c(ncn2COC(CO)CO)c(=O)[nH]1 [gencyclovir]								diminished in size	drop in serum PSA levels						
GLN-ARG-SER-TRP-THR-LEU-ASP-SER-ALA-LEU-SER-MET-GLY-GLY-GLY-SER (QRSWTLDSALSMGGGS; listed as Homo sapiens) [Peptide L12]	the cells lifted and formed clusters that stained intensely	16.7%	5/30		most effective at stimulating osteogenesis and cortical bone repair					formed fewer clumps and considerably more debris	✓	✓	−	vimentin was found to bind	✓Vimentin
